In patent US8846898B2, “Phosphinoamidite carboxylates and analogs thereof in the synthesis of oligonucleotide having reduced internucleotide charge” (Lieure Cornu LLC, priority 2000, dated 2014):
[pace] = phosphonoacetate internucleotide linkage

Key:
DNase I = DNase I (Bos taurus, UniProt P00639)
Method: Radiolabeling of Oligodeoxynucleotides: ODNs were 5′ end-labeled using γ-^32P ATP and T4 polynucleotide kinase (Wu et al., “Purification and Sequence Analysis of Synthetic Oligodeoxyribonucleotides,” in Oligonucleotide Synthesis: A Practical Approach, Gait, Ed. (Oxford University Press, 1990)). […] The radiolabeled ODNs were purified by gel electrophoresis and ethanol precipitation.
Endonuclease Stability: Endonuclease digestion experiments were carried out using DNase I (Boehringer-Mannheim). The assays were performed using a mixture of oligodeoxynucleotide labeled with ^32P at the 5′-end (100,000 cpm) and unlabeled oligodeoxynucleotide (40 pmol) in a buffer containing 40 mM Tris-HCl, pH 7.5, 6 mM MgCl2. Slight excess of the complementary DNA strand (1.2 eq.) was added and the mixture was heated to 95° C. for 5 minutes then chilled on ice for 30 minutes. Enzyme was added to a final concentration of 1 unit/μl (40 μl total reaction volume). The reaction mixture was overlayed with 25 μl of mineral oil and incubated at 37° C. Aliquots (3.5 μl) were removed and quenched by adding 7M urea in TBE buffer (12 μl) and heating to 95° C. for 5 minutes. […]
The mixtures were heated to 95° C. for 5 minutes followed by slow cooling and incubation on ice for 30 minutes. The mixture was equilibrated to room temperature, DNase I added, and the reaction monitored as a function of time. […]

E. coli RNaseH1 = E. coli RNaseH1 (Escherichia coli, UniProt P0A7Y4); assay: Hydrolysis of RNA heteroduplexes with E. coli RNaseH1; assay type: biochemical; details: 5′-32P RNA, two units RNaseH1, four hours at 37° C.
E. coli RNaseH1, sequence (P0A7Y4 whole entry): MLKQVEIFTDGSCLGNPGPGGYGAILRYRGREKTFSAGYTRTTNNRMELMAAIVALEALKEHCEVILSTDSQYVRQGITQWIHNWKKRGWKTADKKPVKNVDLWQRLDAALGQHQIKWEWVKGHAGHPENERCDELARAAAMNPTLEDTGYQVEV

[1] = test system: Phosphodiesterase I from Crotalus adamanteu (snake venom phosphodiesterase)

DNase I, sequence (P00639 23-282): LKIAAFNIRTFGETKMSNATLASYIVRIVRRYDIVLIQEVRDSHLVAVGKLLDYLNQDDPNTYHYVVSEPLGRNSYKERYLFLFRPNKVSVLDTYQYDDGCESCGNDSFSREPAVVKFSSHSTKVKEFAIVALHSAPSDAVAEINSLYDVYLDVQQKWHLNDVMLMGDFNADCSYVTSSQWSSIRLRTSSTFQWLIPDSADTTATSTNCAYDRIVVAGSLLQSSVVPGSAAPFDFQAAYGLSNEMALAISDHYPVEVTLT

Substance	degradation / hydrolysis products observed on incubation with DNase I (DNase I)	RNA degraded (converted to hydrolysis products) in the presence of the oligonucleotide and RNaseH1 (E. coli RNaseH1)	degradation / hydrolysis products observed on exposure to SVP [1]	time to complete degradation by DNase I (DNase I) [h]
phosphonoacetate ODN: 18-mer mixed sequence ODN 5′-CTCAAGTGGGCTGGTGAC-3′ containing internucleotide phosphonoacetate linkages (DNA, all [pace], methylation of C not given here)	no degradation products	approximately 66%	No detectable degradation products	–
phosphodiester ODN: 18-mer mixed sequence ODN 5′-CTCAAGTGGGCTGGTGAC-3′ containing internucleotide phosphodiester linkages (unmodified DNA) (unmodified DNA) [reference compound]	–	–	–	≤ 1
